Measurements published in PubChem BioAssay (NCI).
Where “and” joins values, the source holds several entries; their conditions need not be identical. Identical values can stand only once.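 These data come from cells grown in 96-well plates and exposed to compound for 48 hours at five concentrations. GI50 = concentration required for 50% inhibition of growth. TGI denotes the concentration required for complete inhibition of growth.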

Columns and labels:
Experiment in all cases: inhibition of tumour cell growth, NCI panel, 48 h
[1] = system: SK-MEL-28 melanoma
[2] = system: NCI-H522 lung
[3] = system: KM12 colon
[4] = system: SK-MEL-5 melanoma
[5] = system: HCC-2998 colon
[6] = system: HOP-92 NSCLC
[7] = system: UACC-62 melanoma
[8] = system: MDA-MB-231 breast
[9] = system: ACHN renal
[10] = system: HL-60(TB) leukemia
[11] = system: OVCAR-4 ovarian
[12] = system: MCF7 breast
[13] = system: A549 NSCLC
[14] = system: K-562 leukemia
[15] = system: M14 melanoma
[16] = system: BT-549 breast
[17] = system: NCI-H226 lung
[18] = system: TK-10 renal
[19] = system: T-47D breast
[20] = system: HOP-62 NSCLC
[21] = system: PC-3 prostate
[22] = system: CCRF-CEM leukemia
[23] = system: HCT-116 colon
[24] = system: MOLT-4 leukemia
[25] = system: CAKI-1 renal
[26] = system: UACC-257 melanoma
[27] = system: OVCAR-3 ovarian
[28] = system: MDA-N
[29] = system: U251 CNS
[30] = system: A498 renal
[31] = system: MDA-MB-435
[32] = system: IGROV1 ovarian
[33] = system: LOX IMVI melanoma
[34] = system: HT29 colon
[35] = system: 786-0 renal
[36] = system: SW-620 colon
[37] = system: SF-539 CNS
[38] = system: SF-295 CNS
[39] = system: SN12C renal
[40] = system: DU-145 prostate
[41] = system: SNB-19 CNS
[42] = system: SNB-75 CNS
[43] = system: NCI-H460 lung
[44] = system: COLO 205 colon
[45] = system: SK-MEL-2 melanoma
[46] = system: RPMI-8226 leukemia
[47] = system: HCT-15 colon
[48] = system: OVCAR-8 ovarian
[49] = system: NCI/ADR-RES ovarian
[50] = system: OVCAR-5 ovarian
[51] = system: SR leukemia
[52] = system: NCI-H23 lung
[53] = system: SK-OV-3 ovarian
[54] = system: HS 578T breast
[55] = system: SF-268 CNS
[56] = system: EKVX NSCLC
[57] = system: MALME-3M melanoma
[58] = system: UO-31 renal
[59] = system: RXF 393 renal

## COC(=O)c1cc2c(o1)Sc1ccccc1NC2=O
[1]
  TGI: > 100 µM
[2]
  TGI: > 100 µM
[3]
  TGI: > 100 µM
[4]
  TGI: > 100 µM
[5]
  TGI: > 100 µM
[6]
  TGI: > 100 µM
[7]
  TGI: > 100 µM
[8]
  TGI: > 100 µM
[9]
  TGI: > 100 µM
[10]
  TGI: > 100 µM
[11]
  TGI: > 100 µM
[12]
  TGI: > 100 µM
[13]
  TGI: > 100 µM
[14]
  TGI: > 100 µM
[15]
  TGI: > 100 µM
[16]
  TGI: > 100 µM
[17]
  TGI: > 100 µM
[18]
  TGI: > 100 µM
[19]
  TGI: > 100 µM
[20]
  TGI: > 100 µM
[21]
  TGI: > 100 µM
[22]
  TGI: > 100 µM
[23]
  TGI: > 100 µM
[24]
  TGI: > 100 µM
[25]
  TGI: > 100 µM
[26]
  TGI: > 100 µM
[27]
  TGI: > 100 µM
[28]
  TGI: > 100 µM
[29]
  TGI: > 100 µM
[30]
  TGI: > 100 µM
[31]
  TGI: > 100 µM
[32]
  TGI: > 100 µM
[33]
  TGI: > 100 µM
[34]
  TGI: > 100 µM
[35]
  TGI: > 100 µM
[36]
  TGI: > 100 µM
[37]
  TGI: > 100 µM
[38]
  TGI: > 100 µM
[39]
  TGI: > 100 µM
[40]
  TGI: > 100 µM
[41]
  TGI: > 100 µM
[42]
  TGI: 66.6 µM
[43]
  TGI: > 100 µM
[44]
  TGI: > 100 µM
[45]
  TGI: > 100 µM
[46]
  TGI: > 100 µM
[47]
  TGI: > 100 µM
[48]
  TGI: > 100 µM
[49]
  TGI: > 100 µM
[50]
  TGI: > 100 µM
[51]
  TGI: > 100 µM
[52]
  TGI: > 100 µM
[53]
  TGI: > 100 µM
[54]
  TGI: 63.8 µM
[55]
  TGI: > 100 µM

## Cc1cc(C)nc(NS(=O)(=O)c2ccc(Nc3c4ccccc4nc4c(C(=O)NNCCO)cccc34)cc2)n1
[1]
  TGI: > 100 µM
[2]
  TGI: > 100 µM
[3]
  TGI: > 100 µM
[4]
  TGI: > 100 µM
[5]
  TGI: > 100 µM
[6]
  TGI: > 100 µM
[7]
  TGI: > 100 µM
[8]
  TGI: > 100 µM
[9]
  TGI: > 100 µM
[10]
  TGI: > 100 µM
[11]
  TGI: > 100 µM
[12]
  TGI: > 100 µM
[13]
  TGI: > 100 µM
[14]
  TGI: > 100 µM
[56]
  TGI: > 100 µM
[15]
  TGI: > 100 µM
[16]
  TGI: > 100 µM
[18]
  TGI: > 100 µM
[19]
  TGI: > 100 µM
[20]
  TGI: > 100 µM
[21]
  TGI: > 100 µM
[22]
  TGI: > 100 µM
[24]
  TGI: > 100 µM
[25]
  TGI: > 100 µM
[26]
  TGI: > 100 µM
[27]
  TGI: > 100 µM
[28]
  TGI: > 100 µM
[29]
  TGI: > 100 µM
[30]
  TGI: > 100 µM
[31]
  TGI: > 100 µM
[32]
  TGI: > 100 µM
[33]
  TGI: > 100 µM
[34]
  TGI: > 100 µM
[35]
  TGI: > 100 µM
[36]
  TGI: > 100 µM
[38]
  TGI: > 100 µM
[39]
  TGI: > 100 µM
[40]
  TGI: > 100 µM
[41]
  TGI: > 100 µM
[43]
  TGI: > 100 µM
[44]
  TGI: > 100 µM
[45]
  TGI: > 100 µM
[46]
  TGI: > 100 µM
[47]
  TGI: > 100 µM
[48]
  TGI: > 100 µM
[57]
  TGI: > 100 µM
[49]
  TGI: > 100 µM
[50]
  TGI: > 100 µM
[51]
  TGI: > 100 µM
[52]
  TGI: > 100 µM
[53]
  TGI: > 100 µM
[58]
  TGI: > 100 µM
[54]
  TGI: > 100 µM
[55]
  TGI: > 100 µM

## O=Cc1ccc(-c2cc(C=O)c(-c3cccs3)[nH]2)s1
[1]
  GI50: > 100 µM
  TGI: 75 µM and > 100 µM
[2]
  GI50: 19.6 µM
  TGI: 19.9 µM and 57.4 µM
[3]
  GI50: 50.8 µM
  TGI: 75 µM and > 100 µM
[4]
  GI50: 40.5 µM
  TGI: 75 µM and > 100 µM
[5]
  GI50: 20.1 µM
  TGI: 56.6 µM and > 100 µM
[6]
  GI50: > 100 µM
  TGI: 75 µM and > 100 µM
[7]
  GI50: 46 µM
  TGI: 75 µM and > 100 µM
[8]
  GI50: > 100 µM
  TGI: 75 µM and > 100 µM
[9]
  GI50: 78.6 µM
  TGI: 75 µM and > 100 µM
[11]
  GI50: 12 µM
  TGI: 75 µM and > 100 µM
[12]
  GI50: 7.36 µM
  TGI: 75 µM and > 100 µM
[13]
  GI50: 29.8 µM
  TGI: 75 µM and > 100 µM
[14]
  GI50: 77.5 µM
  TGI: 75 µM and > 100 µM
[56]
  GI50: 47.8 µM
  TGI: 75 µM and > 100 µM
[15]
  GI50: 27.5 µM
  TGI: 75 µM and > 100 µM
[16]
  GI50: > 100 µM
  TGI: 75 µM and > 100 µM
[17]
  TGI: 40 µM
[18]
  GI50: 85 µM
  TGI: 75 µM and > 100 µM
[19]
  GI50: 18.2 µM
  TGI: 49.6 µM and > 100 µM
[20]
  GI50: > 100 µM
  TGI: 72.5 µM and > 100 µM
[21]
  GI50: > 100 µM
  TGI: 75 µM and > 100 µM
[22]
  GI50: > 100 µM
  TGI: 75 µM and > 100 µM
[23]
  GI50: 64.2 µM
  TGI: 75 µM and > 100 µM
[24]
  GI50: 81 µM
  TGI: 75 µM and > 100 µM
[25]
  GI50: 53.5 µM
  TGI: 58.3 µM and > 100 µM
[26]
  GI50: > 100 µM
  TGI: 75 µM and > 100 µM
[27]
  GI50: 52 µM
  TGI: 53.7 µM and > 100 µM
[28]
  GI50: 33.7 µM
  TGI: 75 µM and > 100 µM
[29]
  GI50: > 100 µM
  TGI: 62.9 µM and > 100 µM
[30]
  TGI: 5.73 µM and 4.49 µM
[31]
  GI50: 43.7 µM
  TGI: 75 µM and > 100 µM
[32]
  GI50: 30.8 µM
  TGI: 75 µM and > 100 µM
[33]
  GI50: > 100 µM
  TGI: 75 µM and > 100 µM
[34]
  TGI: 75 µM
[35]
  GI50: > 100 µM
  TGI: 75 µM and > 100 µM
[36]
  GI50: > 100 µM
  TGI: > 100 µM
[37]
  TGI: 75 µM
[38]
  GI50: 36.9 µM
  TGI: 75 µM and > 100 µM
[39]
  TGI: 75 µM and > 100 µM
[40]
  TGI: 75 µM and > 100 µM
[41]
  GI50: > 100 µM
  TGI: 75 µM and > 100 µM
[42]
  GI50: 29.5 µM
  TGI: 52.2 µM and > 100 µM
[43]
  GI50: 48.2 µM
  TGI: 75 µM and > 100 µM
[44]
  TGI: 75 µM and 88.6 µM
[45]
  GI50: > 100 µM
  TGI: 75 µM and > 100 µM
[46]
  GI50: 79.1 µM
  TGI: 75 µM and > 100 µM
[47]
  GI50: 74.8 µM
  TGI: 75 µM and > 100 µM
[48]
  GI50: > 100 µM
  TGI: 75 µM and > 100 µM
[57]
  GI50: > 100 µM
  TGI: 75 µM and > 100 µM
[49]
  GI50: 68.3 µM
  TGI: 75 µM and > 100 µM
[50]
  GI50: 66.4 µM
  TGI: > 100 µM
[51]
  GI50: 31.6 µM
  TGI: 72.7 µM and > 100 µM
[52]
  GI50: > 100 µM
  TGI: 75 µM and > 100 µM
[53]
  GI50: > 100 µM
  TGI: 75 µM and > 100 µM
[58]
  GI50: 34 µM
  TGI: 75 µM and > 100 µM
[54]
  GI50: > 100 µM
  TGI: 75 µM and > 100 µM
[55]
  GI50: > 100 µM
  TGI: > 100 µM
[59]
  GI50: 23.3 µM
  TGI: 75 µM and > 100 µM
